pEC50: −log10 of the molar value. Values joined by “and” are separate entries in the source; they are usually repeats but may differ in a detail not shown here. Identical values can stand only once.

As a reminder, the pEC50 is the EC50 on a negative log10 scale, so that one unit is a factor of ten. A low value points to a large EC50. Broadly, the CC50 is the concentration giving 50% cytotoxicity.

Series [1] concerns HCV-RNA replication in ORL8 cells. The series can be described thus: Effect of antioxidant vitamin E on anti-HCV activity in ORL8 cells (luciferase activity). The class given is cell-based, HCV genotype 1b. The note with it: for canceling of the anti-HCV activity by vitamin E: vitamin E 10 μM. The protocol: The effect of addition of vitamin E on the anti-HCV activity of N-89 was examined using ORL8 cells. An experimental scale and schedule are the same as those in Example 1.
N-89 and vitamin E were simultaneously added so that the concentrations of N-89 and vitamin E were set to 0.5 μM and 10 μM, respectively. The luciferase activity was measured 72 hours after the culture.
The effect of addition of vitamin E on the anti-HCV activity of N-251 was examined using ORL8 cells. An experimental scale and schedule are the same as those in Example 1.
N-251 and vitamin E were simultaneously added so that the concentrations of N-251 and vitamin E were set to 0.5 μM and 10 μM, respectively. The luciferase activity was measured 72 hours after the culture.
The effect of addition of vitamin E on the anti-HCV activity of artemisinin was examined using ORL8 cells. An experimental scale and schedule are the same as those in Example 1.
Artemisinin and vitamin E were simultaneously added so that the concentrations of artemisinin and vitamin E were set to 100 μM and 10 μM, respectively. The luciferase activity was measured 72 hours after the culture.

The subject of series [2] is HCV-RNA replication in OR6 cells (HCV-O strain, HuH-7-derived). The series can be described thus: microbe, parasite or virus in culture. The text has this: (§1) Assay systems using OR6 cells (HCV-O strain), 1B-4R cells (HCV-1B-4 strain), and AH1R cells (HCV-AH1R strain) as HuH-7 cell-derived full-length HCV-RNA-replicating cells, and ORL8 cells (HCV-O strain), ORL11 cells (HCV-O strain), 1B-4RL cells (HCV-1B-4 strain), and KAH5RL cells (HCV-KAH5 strain) as Li23 cell-derived full-length HCV-RNA-replicating cells were used for the quantitative analysis of anti-HCV activity and evaluation of a cytotoxic effect in the present invention. The three cell lines, i.e., the 1B-4R cells, the 1B-4RL cells, and the KAH5RL cells have been disclosed in WO 2010/026965 A1. The AH1R cells may be produced with reference to Mori K et al., BBRC, 371:104-109, 2008 and WO 2010/026965 A1. In addition, all the HCV strains belong to genotype 1b.
(§2) As necessary, an increase or decrease in expression level of an HCV protein (core protein) was examined by a Western blot method.
(§3) In the measurement of the renilla luciferase activity and the measurement by the WST-1 method, experiments were performed in three wells independent of each other, and their means and standard deviation were calculated.
OR6 cells, which had been cultured in general medium for subculture, were plated onto a 24-well plate (2×10^4 cells in 1 mL of medium for […] cell line per well) and cultured. After 24 hours, N-89 was added so as to achieve concentrations of 20 μM, a 2-fold dilution series from 20 μM (10, 5, 2.5, 1.3, 0.63, and 0.31 μM), and 0, or N-251 was added so as to achieve concentrations of 10 μM, a 2-fold dilution series from 10 μM (5, 2.5, 1.3, 0.63, 0.31, and 0.16 μM), and 0. The renilla luciferase activities were measured 72 hours after the culture. N-89 and N-251 were diluted with DMSO.
(§4) The anti-HCV activity of artemisinin was examined using OR6 cells and ORL8 cells and the EC50 values were calculated. An experimental scale and schedule are the same as those in Example 1.
(§5) Artemisinin was added so as to achieve concentrations of 100 μM, a 2-fold dilution series from 100 μM (50, 25, 13, 6.3, 3.1, and 1.6 μM), and 0. The luciferase activities were measured 72 hours after the culture.

Series [3] in a line: Cytotoxic effect, WST-1 cell proliferation assay in OR6 cells. The settings on record: human.
Text: as §1, §3
After 24 hours, N-89 was added so as to achieve concentrations of 20 μM, a 2-fold dilution series from 20 μM (10, 5, 2.5, 1.3, 0.63, and 0.31 μM), and 0, or N-251 was added so as to achieve concentrations of 10 μM, a 2-fold dilution series from 10 μM (5, 2.5, 1.3, 0.63, 0.31, and 0.16 μM), and 0.
The cytotoxic effect of artemisinin was examined using OR6 and ORL8 cells and the CC50 values were calculated. […]
Background: Tetrazolium dyes change colour on reduction, which living cells bring about.

The nature of series [4]: Cytotoxic effect, WST-1 cell proliferation assay in ORL8 cells. The settings on record: human.
Text: as §1, §3
The cytotoxic effects of N-89 and N-251 were examined using ORL8 cells and the CC50 values were calculated. An experimental scale and schedule are the same as those in Example 1.
N-89 and N-251 were added so as to achieve concentrations of 5 μM, a 2-fold dilution series from 5 μM (2.5, 1.3, 0.63, 0.31, 0.16, and 0.08 μM), and 0. The WST-1 cell proliferation assay was performed 72 hours after the culture.
The cytotoxic effect of artemisinin was examined using OR6 and ORL8 cells and the CC50 values were calculated. An experimental scale and schedule are the same as those in Example 1. Artemisinin was added so as to achieve concentrations of 400 μM, a 2-fold dilution series from 400 μM (200, 100, 50, 25, and 13 μM), and 0. The WST-1 cell proliferation assay was performed 72 hours after the culture.

The test system of series [5] is HuH-7-derived HCV-replicon-replicating cells. The settings on record: Paeshuyse J et al., BBRC 2006; cited from earlier work.
In series [6] the test system is HCV-RNA replication in ORL8 cells (HCV-O strain, Li23-derived). The series can be described thus: microbe, parasite or virus in culture.
Text: as §1, §2, §3
The anti-HCV activities of N-89 and N-251 were examined using ORL8 cells and the EC50 values were calculated. An experimental scale and schedule are the same as those in Example 1.
N-89 and N-251 were added so as to achieve concentrations of 5 μM, a 2-fold dilution series from 5 μM (2.5, 1.3, 0.63, 0.31, 0.16, and 0.08 μM), and 0. The luciferase activities were measured 72 hours after the culture.
as §4, §5

Series [7] relates to HCV-RNA replication in ORL8 cells. The experiment in a line: Influence of oxidizing agents KNO3 and NaClO4 on anti-HCV activity in ORL8 cells. The series is classed as cell-based, HCV genotype 1b. The note with it: 10 μM, 72 hours. The protocol: The effects of addition of KNO3 and NaClO4 on the anti-HCV activity of N-89 were examined using ORL8 cells.
N-89 and KNO3 or NaClO4 were simultaneously added so that the concentrations of N-89 and KNO3 or NaClO4 were set to 0.5 μM and 10 μM, respectively. The luciferase activity was measured 72 hours after the culture.

In the case of vitamin E [reference compound], the “luciferase activity, vitamin E alone” value in series [1] (vitamin E 10 μM alone, 72 hours) was 217% and 194%. The “increase of luciferase activity, vitamin E alone” value in series [1] (vitamin E 10 μM alone, 72 hours (Comparative Example 2)) is “about 3 fold”.

On to `C[C@@H]1CC[C@H]2[C@@H](C)C(=O)O[C@@H]3O[C@@]4(C)CC[C@@H]1[C@]32OO4` [artemisinin, reference compound], for which the “luciferase activity, artemisinin in combination with vitamin E” value in series [1] (100 μM + vitamin E 10 μM, 72 hours) was determined as 53%. The “luciferase activity, artemisinin alone” value in series [1] (100 μM, 72 hours) is 23%. Further, the “canceling of the anti-HCV activity by vitamin E” value in series [1] is “not canceled”. The pEC50 in series [2] (Hepatitis C virus, OR6, 72 h) is 4.09; in series [6] (Hepatitis C virus, ORL8, 72 h) it was 4.64. In addition, the “anti-HCV activity (judgement)” value in series [2] (OR6 and ORL8 cells) is recorded as “very weak anti-HCV activity”. Further, the “SI (CC50/EC50)” value came out at 5 in series [2] (OR6 cells) and 16 in series [6] (ORL8 cells). Further, the figures for the CC50 at 72 h in series [3] and in series [4] were 380 µM and 368 µM, respectively. Also, in series [5], the anti-HCV activity entry is reported as “weak”.

For IFN-α, the “canceling of the anti-HCV activity by vitamin E” value in series [1] is recorded as “slightly found”.

As for `[Na+].[O-][Cl+3]([O-])([O-])[O-]` [NaClO4], the “change in luciferase activity, oxidizing agent alone” value in series [7] is listed as “no change”.

In the case of `O=[N+]([O-])[O-].[K+]` [KNO3], in series [7], the “change in luciferase activity, oxidizing agent alone” value is listed as “no change”.

`CC(C)n1c(/C=C/C(O)CC(O)CC(=O)O)c(-c2ccc(F)cc2)c2ccccc21` (centres unmarked) [FLV, Fluvastatin, reference compound]: half-maximal cytotoxicity in series [4] (CC50 at 72 h) was put at 21 µM.
